Reference: US8618283B2, “Ligand libraries for screening GPCRs” (Cambridge Enterprise Limited, priority 2005, dated 2013)

Test system: ET-A and/or ET-B receptor
Experiment: contraction of human aortic rings in organ culture (agonist assay)
Conditions: increasing concentrations 0.01 nM to 100 nM, at top concentration, 37° C.
Description: Endothelin-1 is a peptide which signals through the ET-A and/or ET-B receptor to cause vasoconstriction. To determine whether compounds of the invention are agonists at ET-A and/or ET-B, rings of human aorta (obtained from transplant donor hearts) can be put into organ culture. Rings are then exposed either to increasing concentrations of Endothelin-1 (from 0.01 nM to 100 nM), or to increasing concentrations of the test compound(s) (from about 0.1 nM to about 10 mM) at 37° C., raising the concentration of the appropriate agent approximately every 5 minutes. Throughout the experiment the contraction of the aortic ring is measured by a strain gauge designed and commercially available for such a purpose. […] If the compound of the invention is an agonist at the endothelin receptors, then the force exerted on the strain guage will also be higher (at least at certain concentrations) than prior to addition of the test compound.

force exerted on the strain gauge versus prior to addition: significantly higher
Substance: Endothelin-1
